Laboratory results: patent US20040042984A1, “Skin whitening composition containing arbutin and glucosidase as active ingredients” (priority 2001, published 2004)

Legend:
[1] = Stability of the mixed composition by decoloration (absorbance at 400 nm); type: physicochemical; conditions: for Absorbance (400 nm): 100 mM, reacted 37° C. 10 minutes pH 5.0, TCA, supernatant incubated at 37° C. for 24 hours; for Discoloration rate (% of decoloring of hydroquinone solution): hydroquinone solution regarded as 100%, 37° C. for 24 hours
Description: The absorbency was measured at 400 nm and the degree of discoloring can be expressed in the ratio of the extent of arbutin solution to that of hydroquinone solution.
The formula stability of arbutin-glucosidase mixed formula compared with the hydroquinone only formula was examined by the decoloration. 100 mM arbutin and each 1, 10 and 20 unit/ml glucosidase were reacted in 1 ml of sodium acetate buffer (pH 5.0) at 37° C. for 10 minutes. The reaction was terminated by cooling down in the ice water. Then its mixed 1 ml of cold 20% Trichloroacetic acid (TCA) was added to remove glucosidase activity. The mixture was centrifuged at 12000 rpm. The supernatant solution incubated at 37° C. for 24 hours and the absorbency was measured at […]. The degree of decoloration of hydroquinone was regarded as 100% and the ratio of other samples compared to hydroquinone were calculated. As the control, 100 mM arbutin and 100 mM hydroquinone solution (sigma, USA) was used.

[2] = tested on: skin of the lower part of the volunteers' arms; experiment: Occlusive patch test for primary skin irritation; type: in vivo, human; parameters: Response 24 h / Response 48 h: key to the marks not given beside the values; conditions: for skin irritation (in words): occlusive patch test
Description: In another preferred embodiments of this invention, the safety of this composition was tested by skin-irritation against the occlusive patch applied to healthy-adult volunteers. […] It is interpreted that the skin is more adaptable to the gradually increasing amount of irritant than the high concentration of irritant at a time.
The occlusive patch test was performed to examine skin irritation of the mixture of arbutin and glucosidase by 30 healthy adults. The test patches containing the solution of arbutin and glucosidase of preferred embodiment 2 were applied to the lower part of the volunteers' arms. After 24 hours, the patches were removed. The status of skin was observed from 30 minutes to 48 hours after removing the patches, and the degree of irritation has been classified as described in Table 3a.

## Oc1ccc(O)cc1 [Hydroquinone solution, Hydroquinone]
[1]
  Absorbance (400 nm): 0.356
  Discoloration rate (% of decoloring of hydroquinone solution): 100%
[2]
  skin irritation (in words): very strong skin irritation
[2]; listed as hydroquinone composition
  skin irritation (in words): showed the positive irritation
[2]; occlusive patch, 30 healthy adults, 24 h
  Response 24 h: +++
[2]; occlusive patch, 30 healthy adults, 48 h
  Response 48 h: +++

## OC[C@H]1O[C@@H](Oc2ccc(O)cc2)[C@H](O)[C@@H](O)[C@@H]1O [Arbutin solution, Arbutin]
[1]
  Absorbance (400 nm): 0.005
  Discoloration rate (% of decoloring of hydroquinone solution): 1.40%
